One experiment addresses T1, human TLR7 (Homo sapiens, UniProt Q9NYK1).
T1 construct: host or cells: HEK-Blue cells
T1 sequence (Q9NYK1 27-1049): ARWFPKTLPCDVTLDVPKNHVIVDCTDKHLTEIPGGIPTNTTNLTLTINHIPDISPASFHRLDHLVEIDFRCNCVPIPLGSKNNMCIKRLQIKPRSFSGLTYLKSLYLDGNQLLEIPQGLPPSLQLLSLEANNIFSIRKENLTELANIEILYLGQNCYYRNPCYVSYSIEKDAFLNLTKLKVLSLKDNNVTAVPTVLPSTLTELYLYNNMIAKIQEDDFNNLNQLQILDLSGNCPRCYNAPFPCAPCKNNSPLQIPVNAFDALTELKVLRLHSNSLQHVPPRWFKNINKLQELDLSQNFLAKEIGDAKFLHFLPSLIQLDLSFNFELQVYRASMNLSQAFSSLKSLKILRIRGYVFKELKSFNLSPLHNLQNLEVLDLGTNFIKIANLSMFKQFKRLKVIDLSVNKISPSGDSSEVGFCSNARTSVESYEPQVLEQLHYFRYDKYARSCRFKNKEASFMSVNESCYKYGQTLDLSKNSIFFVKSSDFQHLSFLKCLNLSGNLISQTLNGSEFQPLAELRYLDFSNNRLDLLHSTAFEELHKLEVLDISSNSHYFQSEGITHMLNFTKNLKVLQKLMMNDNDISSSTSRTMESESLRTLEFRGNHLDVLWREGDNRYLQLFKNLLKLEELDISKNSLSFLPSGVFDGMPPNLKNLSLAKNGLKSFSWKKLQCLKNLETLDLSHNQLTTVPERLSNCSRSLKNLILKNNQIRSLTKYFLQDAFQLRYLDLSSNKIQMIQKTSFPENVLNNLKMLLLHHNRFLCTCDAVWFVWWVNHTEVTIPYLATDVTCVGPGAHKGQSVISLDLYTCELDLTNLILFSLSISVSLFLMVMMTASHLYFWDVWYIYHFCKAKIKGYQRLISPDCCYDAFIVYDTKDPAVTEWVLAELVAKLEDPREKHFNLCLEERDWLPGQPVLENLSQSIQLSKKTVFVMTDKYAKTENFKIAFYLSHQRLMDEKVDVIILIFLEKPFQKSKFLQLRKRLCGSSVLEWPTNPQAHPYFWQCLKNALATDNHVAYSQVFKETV
The experiment is described as follows: TLR7 inhibition reporter assay (HEK-Blue cells, SEAP reporter, gardiquimod stimulation). Format: cell-based. The conditions noted are these: HEK-Blue cells overexpressing human TLR7, gardiquimod 7.5 μM. The method, boiled down: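 22 h, 37° C, 5% CO2 incubation; compounds 0.05 nM-50 μM final; TLR7 cells 15000/well, TLR8 20,000/well. Readout: SEAP via HEK-Blue Detection medium. % inhibition = signal reduction versus agonist + DMSO wells, referenced to known inhibitor.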
For orientation: In a reporter assay the amount or activity of a reporter protein is the signal.

Another experiment has as its target T2, human TLR9 (Homo sapiens, UniProt Q9NR96).
T2 construct: host or cells: HEK-Blue cells
T2 sequence (Q9NR96 26-1032): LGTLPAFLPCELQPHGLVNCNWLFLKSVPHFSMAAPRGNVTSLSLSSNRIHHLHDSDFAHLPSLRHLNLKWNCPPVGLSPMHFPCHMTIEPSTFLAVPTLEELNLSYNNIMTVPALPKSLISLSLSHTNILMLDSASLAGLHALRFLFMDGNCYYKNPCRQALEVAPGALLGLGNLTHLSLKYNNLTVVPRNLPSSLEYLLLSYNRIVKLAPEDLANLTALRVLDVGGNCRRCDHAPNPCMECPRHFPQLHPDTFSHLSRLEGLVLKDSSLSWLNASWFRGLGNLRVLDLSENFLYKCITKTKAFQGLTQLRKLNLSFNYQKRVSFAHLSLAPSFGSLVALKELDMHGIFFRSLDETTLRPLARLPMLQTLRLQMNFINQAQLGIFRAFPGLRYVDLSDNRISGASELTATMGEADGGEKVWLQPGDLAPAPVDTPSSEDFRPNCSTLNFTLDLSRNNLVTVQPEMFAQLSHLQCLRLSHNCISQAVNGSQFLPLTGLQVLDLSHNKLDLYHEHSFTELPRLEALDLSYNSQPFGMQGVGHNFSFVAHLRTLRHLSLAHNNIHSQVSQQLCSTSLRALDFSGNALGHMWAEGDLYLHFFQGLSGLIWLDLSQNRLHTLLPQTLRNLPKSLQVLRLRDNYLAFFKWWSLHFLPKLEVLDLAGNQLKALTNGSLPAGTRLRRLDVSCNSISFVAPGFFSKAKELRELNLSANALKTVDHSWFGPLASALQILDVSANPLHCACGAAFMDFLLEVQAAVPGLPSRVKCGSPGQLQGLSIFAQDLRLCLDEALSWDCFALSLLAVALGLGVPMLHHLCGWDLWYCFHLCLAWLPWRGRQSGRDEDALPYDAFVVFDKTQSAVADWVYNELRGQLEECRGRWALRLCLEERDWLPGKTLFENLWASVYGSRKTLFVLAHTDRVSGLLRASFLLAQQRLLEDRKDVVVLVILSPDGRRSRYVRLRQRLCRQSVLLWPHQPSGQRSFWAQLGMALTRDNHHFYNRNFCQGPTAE
Put plainly: TLR9 inhibition reporter assay (HEK-Blue cells, SEAP reporter, ODN2006 stimulation). The conditions noted are these: HEK-Blue cells overexpressing human TLR9, ODN2006 5 nM. Format: cell-based. The method, boiled down:
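Compound treatment: 30 min, RT, 0.05 nM–50 μM final. Agonist: TLR7 gardiquimod 7.5 μM; TLR8 R848 15.9 μM; TLR9 ODN2006 5 nM. Incubation 22 h, 37 °C, 5% CO2. Readout SEAP, HEK-Blue Detection.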

Each structure is given as a SMILES string. pIC50: −log10 of the molar value.

Take `COc1ccc(-c2[nH]c3ccc(C4CCN(C(=O)C[C@H](C)N)CC4)cc3c2C(C)C)cc1OC` [Example 253, (S)-3-amino-1-(4-(2-(3,4-dimethoxyphenyl)-3-isopropyl-1H-indol-5-yl)piperidin-1-yl)butan-1-one]: the pIC50 (in general, the IC50 on a negative log10 scale, so that one unit is a factor of ten) at human TLR7 was 8.00; on human TLR9, 6.35.
For `CNCC(=O)N1CCC(c2ccc3[nH]c(-c4ccc(OC)c(OC)c4)c(C(C)C)c3c2)CC1` [Example 256, 1-(4-(2-(3,4-dimethoxyphenyl)-3-isopropyl-1H-indol-5-yl)piperidin-1-yl)-2-(methylamino)ethan-1-one], the negative-log IC50 (pIC50) is 7.96 on human TLR7 and 5.63 against human TLR9.
The matching figures for `COc1ccc(-c2[nH]c3ccc(C4CCN(Cc5cncn5C)CC4)cc3c2C(C)C)cc1OC` [Example 258, 2-(3,4-dimethoxyphenyl)-3-isopropyl-5-(1-((1-methyl-1H-imidazol-5-yl)methyl)piperidin-4-yl)-1H-indole]: 7.74 and 5.84.
The matching figures for `COc1ccc(-c2[nH]c3ccc(C4CCN(Cc5cnn(C)c5)CC4)cc3c2C(C)C)cc1OC` [Example 259, 2-(3,4-dimethoxyphenyl)-3-isopropyl-5-(1-((1-methyl-1H-pyrazol-4-yl)methyl)piperidin-4-yl)-1H-indole]: 7.40 and 5.69.
The matching figures for `COc1ccc(-c2[nH]c3ccc(C4CCN(Cc5nccn5C)CC4)cc3c2C(C)C)cc1OC` [Example 262, 2-(3,4-dimethoxyphenyl)-3-isopropyl-5-(1-((1-methyl-1H-imidazol-2-yl)methyl)piperidin-4-yl)-1H-indole]: 7.21 and 5.53.
As for `COc1ccc(-c2[nH]c3ccc(C4CCN(Cc5cnc(C)[nH]5)CC4)cc3c2C(C)C)cc1OC` [Example 266, 2-(3,4-dimethoxyphenyl)-3-isopropyl-5-(1-((2-methyl-1H-imidazol-5-yl)methyl)piperidin-4-yl)-1H-indole], the pIC50 against human TLR7 is 7.32; at human TLR9, 5.90.
In the case of `COc1ccc(-c2[nH]c3ccc(C4CCN(Cc5cnc[nH]5)CC4)cc3c2C(C)C)cc1OC` [Example 268, 5-(1-((1H-imidazol-5-yl)methyl)piperidin-4-yl)-2-(3,4-dimethoxyphenyl)-3-isopropyl-1H-indole], the negative logarithm of the IC50 (pIC50) against human TLR7 was 7.51; at human TLR9, 5.83.
The matching figures for `CCN(CC)C(=O)C1CCCN(C(=O)CN2CCC(c3ccc4[nH]c(-c5ccc(OC)c(OC)c5)c(C(C)C)c4c3)CC2)C1` (stereo not shown) [Example 272, 1-(2-(4-(2-(3,4-dimethoxyphenyl)-3-isopropyl-1H-indol-5-yl)piperidin-1-yl)acetyl)-N,N-diethylpiperidine-3-carboxamide]: 7.08 and 5.47.
For `COc1ccc(-c2[nH]c3ccc(C4CCN(CC(=O)NC5CCN(C(C)C)CC5)CC4)cc3c2C(C)C)cc1OC` [Example 273, 2-(4-(2-(3,4-dimethoxyphenyl)-3-isopropyl-1H-indol-5-yl)piperidin-1-yl)-N-(1-isopropylpiperidin-4-yl)acetamide], the negative logarithm of the IC50 (pIC50) was 8.15 against human TLR7 and 6.25 against human TLR9.
The matching figures for `COc1ccc(-c2[nH]c3ccc(C4CCN(CC(=O)N5CCN(C)CC5)CC4)cc3c2C(C)C)cc1OC` [Example 274, 2-(4-(2-(3,4-dimethoxyphenyl)-3-isopropyl-1H-indol-5-yl)piperidin-1-yl)-1-(4-methylpiperazin-1-yl) ethan-1-one]: 7.17 and 6.08.
The matching figures for `COc1ccc(-c2[nH]c3ccc(C4CCN(CC(=O)N5CCCC(CO)C5)CC4)cc3c2C(C)C)cc1OC` (stereo not shown) [Example 275, 2-(4-(2-(3,4-dimethoxyphenyl)-3-isopropyl-1H-indol-5-yl)piperidin-1-yl)-1-(3-(hydroxymethyl)piperidin-1-yl)ethan-1-one]: 7.77 and 5.78.
For the compound `COc1ccc(-c2[nH]c3ccc(C4CCN(CC(=O)NCCO)CC4)cc3c2C(C)C)cc1OC` [Example 276, 2-(4-(2-(3,4-dimethoxyphenyl)-3-isopropyl-1H-indol-5-yl)piperidin-1-yl)-N-(2-hydroxyethyl) acetamide], the pIC50 was 7.77 on human TLR7 and 5.45 on human TLR9.
The matching figures for `COc1ccc(-c2[nH]c3ccc(C4CCN(CC(=O)NCCCO)CC4)cc3c2C(C)C)cc1OC` [Example 277, 2-(4-(2-(3,4-dimethoxyphenyl)-3-isopropyl-1H-indol-5-yl)piperidin-1-yl)-N-(3-hydroxypropyl)acetamide]: 7.80 and 5.30.
Take `COc1ccc(-c2[nH]c3ccc(C4CCN(CC(=O)N5CC[C@H](O)C5)CC4)cc3c2C(C)C)cc1OC` [Example 278, (S)-2-(4-(2-(3,4-dimethoxyphenyl)-3-isopropyl-1H-indol-5-yl)piperidin-1-yl)-1-(3-hydroxypyrrolidin-1-yl)ethan-1-one]: the pIC50 on human TLR7 is 8.10; at human TLR9, 5.54.
On the same counts, the results for `COc1ccc(-c2[nH]c3ccc(C4CCN(CC(=O)N[C@H]5CC[C@H](C(C)(C)O)CC5)CC4)cc3c2C(C)C)cc1OC` [Example 279, 2-(4-(2-(3,4-dimethoxyphenyl)-3-isopropyl-1H-indol-5-yl)piperidin-1-yl)-N-((1r,4r)-4-(2-hydroxypropan-2-yl)cyclohexyl)acetamide] are 6.31 and 4.75.
On the same counts, the results for `COc1ccc(-c2[nH]c3ccc(C4CCN(C(=O)CN5CCC[C@H](C(=O)N6CCN(C(C)=O)CC6)C5)CC4)cc3c2C(C)C)cc1OC` [Example 284, (S)-2-(3-(4-acetylpiperazine-1-carbonyl)piperidin-1-yl)-1-(4-(2-(3,4-dimethoxyphenyl)-3-isopropyl-1H-indol-5-yl)piperidin-1-yl)ethan-1-one] are 7.41 and 5.34.
Regarding `COc1ccc(-c2[nH]c3ccc(C4CCN(C(=O)CN5CCC[C@H](C(=O)NC(C)C)C5)CC4)cc3c2C(C)C)cc1OC` [Example 285, (S)-1-(2-(4-(2-(3,4-dimethoxyphenyl)-3-isopropyl-1H-indol-5-yl)piperidin-1-yl)-2-oxoethyl)-N-isopropylpiperidine-3-carboxamide], the negative logarithm of the IC50 (pIC50) against human TLR7 was 7.26; against human TLR9, 5.31.

These data come from US11180474B2 (BRISTOL-MYERS SQUIBB COMPANY, priority 2016, dated 2021).
